Peptide text beside a SMILES is read from it.

Here are results for 9 compounds from US20060116328A1, “Combined use of carnosinase inhibitor with l-carnosines and composition” (priority 2003, published 2006).

One assay has as its target T1, tissue carnosinase (Rattus norvegicus, UniProt Q6Q0N1).
T1 construct: Partially purified tissue carnosinase as a solution in 0.1M phosphate buffer (pH 7.0) is prepared from the crude brain extracts; from tissue; host or cells: brain of male Hairless rats
T1 sequence (Q6Q0N1 1-475): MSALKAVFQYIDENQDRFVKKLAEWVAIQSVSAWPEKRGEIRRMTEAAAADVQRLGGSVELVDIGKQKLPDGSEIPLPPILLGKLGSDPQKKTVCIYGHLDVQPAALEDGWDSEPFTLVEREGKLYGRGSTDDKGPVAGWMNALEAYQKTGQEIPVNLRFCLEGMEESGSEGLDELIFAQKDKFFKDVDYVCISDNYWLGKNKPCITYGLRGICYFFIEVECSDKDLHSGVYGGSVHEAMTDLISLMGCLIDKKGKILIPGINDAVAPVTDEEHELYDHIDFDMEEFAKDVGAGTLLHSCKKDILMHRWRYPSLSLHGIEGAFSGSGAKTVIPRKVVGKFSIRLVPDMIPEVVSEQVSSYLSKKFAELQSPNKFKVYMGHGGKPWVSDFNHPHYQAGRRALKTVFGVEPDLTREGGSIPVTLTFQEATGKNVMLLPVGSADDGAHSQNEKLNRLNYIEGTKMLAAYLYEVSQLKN
As to the kind of experiment: Hydrolysis of L-carnosine and related substance with tissue carnosinase in the absence or presence of a carnosinase inhibitor. It counts as biochemical, male Hairless rats. Particulars: pH 7.0, 37° C. The protocol:
Partially purified tissue carnosinase as a solution in 0.1M phosphate buffer (pH 7.0) is prepared from the crude brain extracts of male Hairless rats by a reported procedure (Y. Courbebaisse, G. Langrand, J -F. Nicolay and M. A. Babizhayev, Proceeding of 19th IFSCC Congress, Australia, Vol. 3, 1996, p. 1-12; M. A. Babizhayev et al., Letters in Peptide Science, Vol. 5, 163, 1998). A solution of the substrate (450 μl) in 0.1M phosphate buffer (pH 7.0) is incubated with the diluted enzyme solution (50 μl) at 37° C. for 120 min. in the absence or in the presence of a carnosinase inhibitor. Portions of the reaction mixture are taken at the time points of 0, 2, 3, 4, 5, 10, 20, 40, 60 min and dansylated with dansyl chloride (5 mg of dansyl chloride/ml of acetonitrile solution) at 50° C. for 15 min. The each portion is subjected to HPLC analysis on a column C18DB using a gradient method (A=0.02N acetic acid/acetonitrile, 90/10; B=acetonitrile). The rate of the peptide hydrolysis is determined by following the decrease of the area under the curve (AUC) of the dansylated substrate.

Another assay deals with solid tumor cell lines. As to the kind of experiment: Growth inhibition and induction of apoptosis in solid tumor cell lines. It counts as cell-based. The protocol:
The experimental design, details of experimental procedure and human leukemia cell lines were essentially the same as those reported by Sekine et al. (Int. J. Cancer, Vol. 94, 485, 2001). The carnosinase inhibitor bestatine was used in the range of 5-15 μg/ml of concentration and the concentration of the applied carnosine varied from 5-20 mM . […] Our study was performed with this combination to examine whether bestatin+carnosine can also induce apoptosis in solid tumor cell lines.

The next assay concerns skin. As to the kind of experiment: Cosmetic liposome composition applied on the skin of elderly volunteers. Particulars: 10 elderly subjects, applied on the skin twice daily for 15 days. It counts as in vivo, human.
The next assay has as its system mice. The note with it: mice supplemented with L-carnosine; cited from earlier work.
The test system of a further assay is cells. Particulars: L-carnosine supplementation of tissue cultures; cited from earlier work.
Where [1] appears, read: substrate L-Carnosine 0.08 mM + inhibitor 0.5 mM.

In the case of `NCC(=O)N[C@@H](Cc1cnc[nH]1)C(=O)O` [Gly-L-His] (H-Gly-His-OH), the rate of hydrolysis at tissue carnosinase (setting [1]) was 6e-06 mol/min.

For the compound `CC(=O)NCCC(=O)N[C@@H](Cc1cnc[nH]1)C(=O)O` [N-Acetyl-L-carnosine, N-acetyl-L-carnosine], at tissue carnosinase (substrate N-Acetyl-L-carnosine 0.08 mM alone (blank test)), the rate of hydrolysis was found to be 1e-06 mol/min.

With `CC(=O)NCCC(=O)O` [N-acetyl-β-alanine], the results for the rate of hydrolysis on tissue carnosinase (setting [1]) and on tissue carnosinase (substrate N-Acetyl-L-carnosine 0.08 mM + inhibitor 0.5 mM) were 3e-06 mol/min and 3.5e-07 mol/min, respectively.

Regarding `CC(C)C[C@H](NC(=O)[C@@H](O)[C@H](N)Cc1ccccc1)C(=O)O` [bestatine, bestatin, reference compound], in the assay with solid tumor cell lines (bestatine 5-15 μg/ml, carnosine 5-20 mM), the “growth inhibition and induction of apoptosis” value is on record as “neither direct growth inhibition nor induction of apoptosis”. At tissue carnosinase (substrate L-Carnosine 0.08 mM + inhibitor 0.5 nM), the rate of hydrolysis turned out to be 2e-06 mol/min.

As to `NCCCC(=O)NCCc1c[nH]cn1` [γ-aminobutyryl-histamine, γ-aminobutyrylhistamine], the rate of hydrolysis at tissue carnosinase (setting [1]) stood at 4.5e-06 mol/min.

Turning to `NCCC(=O)O` [β-alanine], the results for the rate of hydrolysis on tissue carnosinase (setting [1]) and on tissue carnosinase (substrate L-Carnosine 0.3 mM + inhibitor 0.5 mM) were 5e-06 mol/min and 5.4e-05 mol/min, respectively.

Regarding `O=C(O)[C@H](Cc1cnc[nH]1)NC(=O)[C@@H]1CCCN1` [L-Pro-L-His], the rate of hydrolysis at tissue carnosinase (setting [1]) was found to be 9e-06 mol/min.

With `NCCC(=O)N[C@@H](Cc1c[nH]cn1)C(=O)O` [L-Carnosine, β-alanyl-L-histidine], in the assay with skin, the skin pigmentation entry is reported as “only a little whitening activity”. Also, the figures for the rate of hydrolysis at tissue carnosinase (L-Carnosine 0.08 mM + L-carnosine 0.3 mM (blank test)), at tissue carnosinase (substrate L-Carnosine 0.08 mM alone (blank test)) and on tissue carnosinase (substrate L-Carnosine 0.3 mM alone (blank test)) were 7.8e-05 mol/min, 3.4e-05 mol/min and 7.8e-05 mol/min, respectively. In addition, in the assay on mice, the “average life span longer than non-treated mice” value was 20%. In addition, in the assay with cells, the “increase in cellular life span” value is 67%.

As to `COC(=O)[C@H](CC(C)C)NC(=O)[C@@H](O)[C@H](N)Cc1ccccc1` [bestatin methyl ester], the cell growth result in the assay on solid tumor cell lines (used with L-carnosine, compared with L-carnosine only) is “inhibited cell growth more clearly than the case where only L-carnosine is used”.
